Data: patent US9012433B2, “Substituted tetracycline compounds” (Paratek Pharmaceuticals, Inc., priority 2006, dated 2015)
Converted amounts (≈) assume the structure as drawn. Like-named read-outs stand apart in the source and are kept apart here.

Assays:
[1] = system: B. thetaiotaomicron ATCC 29741; experiment: Antibacterial MIC, CLSI broth microdilution; assay type: cell-based; conditions: Bacteroides thetaiotaomicron
E. coli ATCC 25922 = experiment: Antibacterial MIC, CLSI broth microdilution; assay type: cell-based; conditions: Escherichia coli, ATCC25922; 35° C., 18-24 hours
How it was run: (§1)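 CLSI broth microdilution in cation-supplemented Mueller Hinton broth, inoculum 1×10^5 cfu from 0.5 McFarland cultures diluted 1:200. Incubated 35° C in ambient air for 18-24 hours. Growth read spectrophotometrically and checked manually; MIC (μg/mL) is the lowest compound dilution inhibiting growth.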

E. coli MG 1655 = experiment: Antibacterial MIC, CLSI broth microdilution; assay type: cell-based; conditions: Escherichia coli, MG1655; 35° C., 18-24 hours
How it was run: as §1

P. acnes ATCC 11827 = experiment: Antibacterial MIC, CLSI broth microdilution; assay type: cell-based; conditions: Cutibacterium acnes, ATCC11827; 35° C., 18-24 hours
How it was run: as §1

P. acnes ATCC 6919 = experiment: Antibacterial MIC, CLSI broth microdilution; assay type: cell-based; conditions: Cutibacterium acnes, ATCC6919; 35° C., 18-24 hours
How it was run: as §1

S. aureus RN450 [2] = experiment: Antibacterial MIC, CLSI broth microdilution; assay type: cell-based; conditions: Staphylococcus aureus, RN450; 35° C., 18-24 hours
How it was run: as §1

[3] = system: S. pneumoniae 157E - Strep; experiment: Antibacterial MIC, CLSI broth microdilution; assay type: cell-based; conditions: Streptococcus pneumoniae, 157ESTREP; 35° C., 18-24 hours; lysed horse blood
How it was run: as §1

in vitro = assay type: cell-based
How it was run: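 COS-1 or CHO cells exposed to serial dilutions of test compound for 24 hours. Metabolic activity then read with resazurin (Alamar Blue): 2 hours incubation plus 30 minutes dark at room temperature, fluorescence ex 535/em 590 nm, treated versus control.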

[4] = Half-life of oxidation, sodium periodate accelerated oxidation; assay type: physicochemical
Method: Not to be limited by theory, it is believed that the tissue staining may be caused oxidative instability. The tetracycline compounds were subjected to accelerated oxidation in a continuous-flow microreactor using a 15 molar excess of sodium periodate at pH 11 and 22° C. Aliquots of each reaction mixture were quenched at various time points with ascorbic acid and the disappearance of each compound was determined by RP-HPLC. Pseudo first-order rate constants and t1/2 values were obtained from the plots of log (Ao-At/Ao) versus time, where Ao is the HPLC area determined for each compound at time=0 and At is the HPLC area at time=t.

S. aureus RN450 [5] = experiment: In vivo anti-bacterial activity, S. aureus model; conditions: Staphylococcus aureus, sc, mice, 24 hours; for responders at 5 mg/kg: lethal IP S. aureus RN450, single subcutaneous dose 5 mg/kg, read-out: Percent Survival; for ED50: lethal IP S. aureus RN450, subcutaneous, read-out: PD50 (dose that protects 50% of the animals)
Method: Groups of five mice were injected intraperitoneally with a lethal dose of S. aureus RN450 in a medium of mucin. Mice were evaluated at 24 hours to determine survival. […] In some instances, a dose response study was performed with the compound such that a PD50 (a dose of compound that protects 50% of the animals) could be calculated.

[6] = system: carrageenan induced rat paw inflammation; experiment: Rat carrageenan-induced paw edema inflammatory model; assay type: in vivo; conditions: IP, various doses, FIG. 1
Method: The model used a sub-plantar injection of carrageenan in the rat to induce an inflammatory response. The test compound or saline (control) was administered IP 30 minutes before a subplantar injection of carrageenan (1.5 mg/0.1 mL). Paw volume was measured […] before subplantar injection and again 3 hours after the injection of carrageenan using a plethysmometer. Significant differences as determined by a Kruskal-Wallis One Way ANOVA are noted between the inflammation of the untreated controls versus treated animals […]

[7] = ATCC29741, read-out: MIC B. thetaiotaomicron ATCC 29741
[8] = ATCC29741, 35° C., 18-24 hours, read-out: MIC B. thetaiotaomicron ATCC 29741

| half-life ([4]; 15 molar excess of sodium periodate, pH 11, 22° C., read-out: half-life for oxidation (converted)) [min] | Compound | MIC [1, 7] [mg/L] | MIC (E. coli ATCC 25922) [mg/L] | MIC (E. coli MG 1655) [mg/L] | MIC (P. acnes ATCC 11827) [mg/L] | MIC (P. acnes ATCC 6919) [mg/L] | MIC (S. aureus RN450 [2]) [mg/L] | MIC [3] [mg/L] | IC50 at 24 h (in vitro; African green monkey) [mg/L] | IC50 at 24 h (in vitro; Chinese hamster) [mg/L] | half-life ([4]; buffer, pH 11) [min] | MIC [1, 8] [mg/L] | responders at 5 mg/kg (S. aureus RN450 [5]) [%] | modulation of carrageenan induced inflammation compared with doxycycline [6] | ED50 (S. aureus RN450 [5]) [mg/kg] |
| --- | --- | --- | --- | --- | --- | --- | --- | --- | --- | --- | --- | --- | --- | --- | --- |
|  | CN(C)c1ccc(O)c2c1C[C@H]1C[C@H]3[C@H](N(C)C)C(O)=C(C(N)=O)C(=O)[C@@]3(O)C(O)=C1C2=O [Minocycline, reference compound] | 4 to 8 (≈ 8.74 to 17.5 µM) | < 4 | < 4 | < 4 | < 4 | < 4 | < 4 | > 75 | > 75 | 0.137 |  |  |  |  |
|  | CCO/N=C(/C)c1ccc(O)c2c1C[C@H]1C[C@H]3[C@H](N(C)C)C(O)=C(C(N)=O)C(=O)[C@@]3(O)C(O)=C1C2=O [A] |  | < 4 | 4 to 8 (≈ 8.01 to 16 µM) | < 4 | < 4 | < 4 | < 4 | < 35 | < 35 |  | > 8 | 100 | improved activity |  |
|  | CN(C)[C@@H]1C(O)=C(C(N)=O)C(=O)[C@@]2(O)C(O)=C3C(=O)c4c(O)ccc(CNOCCF)c4C[C@H]3C[C@@H]12 [DW, (4S,4aS,5aR,12aS)-4-Dimethylamino-7-[(2-fluoro-ethoxyamino)-methyl]-3,10,12,12a-tetrahydroxy-1,11-dioxo-1,4,4a,5,5a,6,11,12a-octahydro-naphthacene-2-carboxylic acid amide] |  | < 4 | > 8 | < 4 | < 4 | < 4 | < 4 | > 75 | > 75 |  | 4 to 8 (≈ 7.91 to 15.8 µM) |  |  | 0.48 |
|  | CN(C)[C@@H]1C(O)=C(C(N)=O)C(=O)[C@@]2(O)C(O)=C3C(=O)c4c(O)ccc(CNOCC(F)(F)F)c4C[C@H]3C[C@@H]12 [DZ] |  | 4 to 8 (≈ 7.39 to 14.8 µM) | > 8 | < 4 | < 4 | < 4 | < 4 | < 35 | < 35 |  | < 4 |  |  | 1.11 |
|  | C=CCONCc1ccc(O)c2c1C[C@H]1C[C@H]3[C@H](N(C)C)C(O)=C(C(N)=O)C(=O)[C@@]3(O)C(O)=C1C2=O [AF] |  | 4 to 8 (≈ 8.01 to 16 µM) | 4 to 8 (≈ 8.01 to 16 µM) | < 4 | < 4 | < 4 | < 4 | 35 to 75 (≈ 70.1 to 150 µM) | 35 to 75 (≈ 70.1 to 150 µM) |  | < 4 |  |  | 0.23 |
| 8.25 | CN(C)c1cc(C#N)c(O)c2c1C[C@H]1C[C@H]3[C@H](N(C)C)C(O)=C(C(N)=O)C(=O)[C@@]3(O)C(O)=C1C2=O [B] |  | > 8 | > 8 | < 4 | < 4 | < 4 | < 4 | < 35 | < 35 |  | 4 to 8 (≈ 8.29 to 16.6 µM) |  |  |  |
|  | CN(C)[C@@H]1C(O)=C(C(N)=O)C(=O)[C@@]2(O)C(O)=C3C(=O)c4c(O)ccc(CNOCC(F)F)c4C[C@H]3C[C@@H]12 [DX] |  | 4 to 8 (≈ 7.64 to 15.3 µM) | 4 to 8 (≈ 7.64 to 15.3 µM) | < 4 | < 4 | < 4 | < 4 | < 35 | 35 to 75 (≈ 66.9 to 143 µM) |  | < 4 |  |  | 0.58 |
|  | CON(C)Cc1ccc(O)c2c1C[C@H]1C[C@H]3[C@H](N(C)C)C(O)=C(C(N)=O)C(=O)[C@@]3(O)C(O)=C1C2=O [P] | 4 to 8 (≈ 8.2 to 16.4 µM) | 4 to 8 (≈ 8.2 to 16.4 µM) | 4 to 8 (≈ 8.2 to 16.4 µM) | < 4 | < 4 | < 4 | < 4 | > 75 | > 75 |  |  | 100 |  | 0.13 |
|  | C/C(=N\OC(C)(C)C)c1cc(N)c(O)c2c1C[C@H]1C[C@H]3[C@H](N(C)C)C(O)=C(C(N)=O)C(=O)[C@@]3(O)C(O)=C1C2=O [Q, (4S,4aS,5aR,12aS)-9-Amino-7-(1-tert-butoxyimino-ethyl)-4-dimethylamino-3,10,12,12a-tetrahydroxy-1,11-dioxo-1,4,4a,5,5a,6,11,12a-octahydro-naphthacene-2-carboxylic acid amide] |  | 4 to 8 (≈ 7.37 to 14.7 µM) | 4 to 8 (≈ 7.37 to 14.7 µM) | < 4 | < 4 | < 4 | < 4 | < 35 | < 35 |  | 4 to 8 (≈ 7.37 to 14.7 µM) | 100 |  | 0.45 |
